Experimental data published in US11642335B2, “Chemical synthesis of clopidogrel active metabolites and disulfide conjugate prodrugs” (Board of Regents, The University of Texas System, priority 2019, dated 2023).
Entries after “also recorded” stand apart in the source; their conditions may differ.

What was measured:
[1] = patients treated with CPG; cited from earlier work
P2Y12R = P2Y12R (Homo sapiens, UniProt Q9H244); conditions: biosynthesized H2, relative to H4; cited from earlier work
[2] = tested on: FeCl3 carotid artery injury-induced thrombosis; assay: FeCl3 carotid artery injury-induced thrombosis mouse model (in vivo antiplatelet test); conditions: for occlusion time of thrombosis: tail vein administration of 1 mg/kg, compared to vehicle (negative control) and CPG (positive control), FIG. 14, 1 mg/kg
Excerpt: Referring now to FIGS. 14-18, In vivo antiplatelet test of synthetic H3 and H4 in a FeCl3 carotid artery injury-induced thrombosis mouse model.

antiplatelet activity = conditions: cited from earlier work

Sequence of P2Y12R (Q9H244 whole entry): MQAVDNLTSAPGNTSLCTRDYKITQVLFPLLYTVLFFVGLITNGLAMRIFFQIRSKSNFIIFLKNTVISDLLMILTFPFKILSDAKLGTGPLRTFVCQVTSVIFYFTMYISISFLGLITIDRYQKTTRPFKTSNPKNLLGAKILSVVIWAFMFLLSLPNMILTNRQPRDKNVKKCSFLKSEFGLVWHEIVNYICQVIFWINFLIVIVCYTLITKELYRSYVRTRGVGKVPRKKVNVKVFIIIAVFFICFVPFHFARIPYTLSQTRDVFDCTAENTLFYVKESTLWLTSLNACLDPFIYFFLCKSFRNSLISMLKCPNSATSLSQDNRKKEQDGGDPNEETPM

Compound	detection as circulating metabolite in patients' plasma [1]	potency against P2Y12R in vitro (P2Y12R)	occlusion time of thrombosis [2]	stereospecific potency in vivo ([2]; synthetic metabolite, mice)	activity in in vitro pharmacological studies (antiplatelet) (antiplatelet activity)
COC(=O)[C@H](c1ccccc1Cl)N1CC[C@@H](S)/C(=C\C(=O)O)C1 [H2]	not detected	similarly potent as H4	–	–	–
COC(=O)[C@H](c1ccccc1Cl)N1CC[C@@H](S)/C(=C\C(=O)O)C1 [H3]	detected as circulating metabolites	–	ineffective	–	–
COC(=O)[C@H](c1ccccc1Cl)N1CC[C@@H](S)/C(=C\C(=O)O)C1 [H4]	detected as circulating metabolites	–	significantly prolong the occlusion time of thrombosis	stereospecific potency in mice; also recorded: stereospecific potency in vivo	active
